Each structure is given as a SMILES string.

Series [1] deals with rBMSC. In words: Cytotoxicity assay of ferric ions (CCK8 cell viability). The series is classed as cell-based, rat. As for the experimental part:
A cytotoxicity assay was done with rBMSC in order to evaluate the safety of ferric ions alone or the ferric ion/adenoviral vector composite to the body. rBMSC was incubated for 2 hours with 0.2 μM˜50 mM ferric ions alone or in combination with 100 MOI of an adenoviral vector. On the next day, cell viability was determined using a CCK8 kit (DOJINDO, Japan).

Series [2] relates to rBMSC. In words: Comparison of intracellular delivery of adenoviral vector among ferrous, ferric and calcium ions. It is filed as cell-based, rat. As to conditions: rAd/EGFP 30 MOI with 50 μM cation. On the procedure: To examine whether ferric irons (Fe^3+) improve the delivery of […] into cells, the adenoviral vector rAd/EGFP, which carries a GFP (green fluorescent protein) gene, was employed. First, 30 or 100 MOI of rAd/EGFP was mixed and incubated with 2 μM, 10 μM or 50 μM ferric ions for 30 min at room temperature, followed by infection for 2 hours into rat bone marrow mesenchymal stem cells (rBMSC), the human cervical cancer cell line HeLa, and the human amelanotic melanoma cell line (A375), all free from the expression of CAR, a primary receptor for adenoviruses. Then, the viral mixture was removed and the medium was changed with DMEM before incubation for two days in a CO2 incubator (CO2 water Jacketed Incubator, Form a Scientific™). The cells were detached by trypsinization and analyzed for intracellular GFP level using FACS (fluorescence activated cell sorter, BD).
Ferrous and ferric ions were compared with calcium ions, known to improve the gene delivery of adenoviral vectors, for efficacy of gene delivery. In this regard, rBMSC was treated with rAd/EGFP (30 MOI) and 50 μM cations (Fe^2+, Fe^3+, Ca^2+) in the same manner as in Example 1, and the efficacy of gene delivery was compared among the cations.

Turning to `[Fe+3]` [ferric ions], the “50% cell viability concentration relative to the iron ion concentration used for gene delivery (10~50 μM)” value with rBMSC [1] was found to be 1000 fold. Also, the “iron ion concentration at which cytotoxicity starts” value with rBMSC [1] (2 h incubation, CCK8 next day) amounted to 10 mM. Moreover, the cell viability entry with rBMSC [1] (iron ion concentration of 50 mM, CCK8) is listed as “decreased to zero”. Further, in the series with rBMSC [2], the “gene delivery efficiency relative to calcium ions” value is recorded as 60 times.
Take `[Fe+2]` [ferrous ions]: in the series on rBMSC [2], the “gene delivery efficiency relative to calcium ions” value was found to be 60 times.

The values above are taken from patent US9228202B2, “Intracellular viral vector delivery method employing iron ion/viral vector composite” (POSTECH ACADEMY-INDUSTRY FOUNDATION, priority 2009, dated 2016).
